Results on ten compounds are retold here after article PMC3940197, “Identification of the first small-molecule ligand of the neuronal receptor sortilin and structure determination of the receptor–ligand complex” (Acta Crystallographica Section D: Biological Crystallography, 2014).

One may read the IC50 as the concentration that inhibits the measured activity by half. Broadly, the Kd is the free concentration of one partner at which half of the binding sites on the other are occupied at equilibrium, for simple one-to-one binding.

Test [1] deals with T1, sortilin (Homo sapiens, UniProt Q99523).
T1 construct: The extracellular Vps10p domain of sortilin was overexpressed in HEK293F cells and purified from the medium; made in house; host or cells: HEK293F
T1 sequence (Q99523 78-755 limits assumed): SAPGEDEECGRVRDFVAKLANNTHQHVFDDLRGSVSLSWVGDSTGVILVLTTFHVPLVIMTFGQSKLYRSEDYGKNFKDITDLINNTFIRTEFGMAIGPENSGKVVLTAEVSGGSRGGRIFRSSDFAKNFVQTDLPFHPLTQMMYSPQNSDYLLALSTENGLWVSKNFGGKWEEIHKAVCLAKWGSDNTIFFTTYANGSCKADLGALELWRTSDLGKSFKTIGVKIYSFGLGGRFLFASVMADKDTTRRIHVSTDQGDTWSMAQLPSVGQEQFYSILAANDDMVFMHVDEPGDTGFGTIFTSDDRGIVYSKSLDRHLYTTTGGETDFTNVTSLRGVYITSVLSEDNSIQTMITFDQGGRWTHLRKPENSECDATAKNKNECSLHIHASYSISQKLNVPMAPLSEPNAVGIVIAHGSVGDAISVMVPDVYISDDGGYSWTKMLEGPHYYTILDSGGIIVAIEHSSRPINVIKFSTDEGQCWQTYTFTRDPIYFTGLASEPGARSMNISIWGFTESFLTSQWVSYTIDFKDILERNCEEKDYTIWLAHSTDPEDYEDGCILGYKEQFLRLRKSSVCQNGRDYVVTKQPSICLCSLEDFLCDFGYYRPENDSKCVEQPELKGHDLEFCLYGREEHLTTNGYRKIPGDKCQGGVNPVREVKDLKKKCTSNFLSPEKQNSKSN
As to the kind of experiment: 3H-neurotensin-binding sortilin scintillation proximity assay (SPA). The note with it: for IC50: 150 nM sortilin, 5 nM 3H-neurotensin, averages of at least four determinations, read-out: IC50 (displacement of 3H-neurotensin binding to sortilin); for activity in SPA assay (in words): structure-activity relationship relative to hit 1a. The protocol:
The open reading frame of human sortilin including the endogenous signal peptide to residue 723 was amplified by PCR and cloned into the pCEP-pu vector with XbaI and XhoI. The primers were designed to include a C-terminal factor Xa site followed by a hexahistidine tag. HEK293F cells were transfected with 900 µg plasmid, applying 900 µl FreeStyle MAX reagent (Invitrogen) according to the manufacturer’s instructions, and were grown in 900 ml FreeStyle 293 medium (Invitrogen) in a 3 l Erlenmeyer flask for 7 d. The medium was harvested by centrifugation at 3700g for 15 min, filtered through a 0.40 µm filter and the pH was adjusted by supplementation with Tris–HCl pH 8.0 to a final concentration of 50 mM. A 5 ml Ni–NTA column (GE Healthcare) was equilibrated in buffer A (50 mM Tris–HCl pH 8.0, 150 mM NaCl) and the medium was recirculated over the column overnight. The column was washed with five column volumes of wash buffer (50 mM Tris–HCl pH 8.0, 150 mM NaCl, 10 mM imidazole) and sortilin was eluted with a ten-column-volume imidazole gradient (10–250 mM imidazole). Fractions containing sortilin were pooled and concentrated by […] (Vivaspin 20, 10 kDa cutoff, Sartorius). The sortilin was applied onto a Superdex 200 10/300 GL column (GE Healthcare) equilibrated in buffer A. Fractions containing sortilin were pooled, concentrated to a final concentration of 5 mg ml^−1, flash-frozen in liquid nitrogen and stored at −80°C.
The compound affinity was determined by measuring the displacement of ^3H-neurotensin binding to sortilin using a scintillation proximity assay (SPA). Experiments were performed in assay buffer (50 mM HEPES pH 7.4, 100 mM NaCl, 2.0 mM CaCl2, 0.1% BSA, 0.1% Tween-20) with a total volume of 40 µl. The compound was pre-incubated for 30 min at room temperature with 150 nM sortilin before 5 nM ^3H-neurotensin and Ni-chelate imaging beads (Perkin Elmer) were added. After 6 h, the plate was read on a ViewLux with 360 s exposure time. Unlabelled neurotensin and a DMSO blank were used as positive and negative controls, respectively. Dose-response evaluation of compounds was performed with ten concentrations of 1a–1h and AF40431 (covering concentrations between 2.5 nM and 50 µM). The half-maximal inhibitory concentration (IC50) values were calculated by nonlinear regression using the sigmoid concentration response (variable slope) in XLfit 4 (IDBS, UK). All values reported are the averages of at least four determinations.
(In general: SPA uses beads or plates that emit light when radiolabelled molecules are held near them.)

Another test addresses NTSR1 (Homo sapiens, UniProt P30989). Briefly: Competition of NTS binding to NTSR1. As to conditions: data not shown.
Test [2] concerns the target T2, sortilin (Homo sapiens, UniProt Q99523).
T2 construct: The extracellular Vps10p domain of sortilin was overexpressed in HEK293F cells and purified from the medium; made in house; host or cells: HEK293F
T2 sequence (Q99523 78-756): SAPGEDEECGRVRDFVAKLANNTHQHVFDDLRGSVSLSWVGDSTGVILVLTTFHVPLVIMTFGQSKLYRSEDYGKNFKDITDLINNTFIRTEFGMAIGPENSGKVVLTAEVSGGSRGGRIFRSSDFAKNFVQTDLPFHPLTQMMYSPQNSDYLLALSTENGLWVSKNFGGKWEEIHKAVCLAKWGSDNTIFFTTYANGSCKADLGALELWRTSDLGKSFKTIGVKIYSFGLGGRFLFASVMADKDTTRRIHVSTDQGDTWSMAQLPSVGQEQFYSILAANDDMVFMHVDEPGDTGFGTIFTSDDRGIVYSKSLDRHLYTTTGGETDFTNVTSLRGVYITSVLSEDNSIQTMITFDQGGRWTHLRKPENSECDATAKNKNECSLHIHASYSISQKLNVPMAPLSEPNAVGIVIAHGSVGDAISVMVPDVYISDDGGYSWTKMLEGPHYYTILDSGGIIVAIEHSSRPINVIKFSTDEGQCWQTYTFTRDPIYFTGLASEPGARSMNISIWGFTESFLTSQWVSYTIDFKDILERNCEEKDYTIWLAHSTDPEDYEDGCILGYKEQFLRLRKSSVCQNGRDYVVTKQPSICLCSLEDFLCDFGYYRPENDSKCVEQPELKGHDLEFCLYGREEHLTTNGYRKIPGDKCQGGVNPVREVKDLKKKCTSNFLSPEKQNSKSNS
As to the kind of experiment: Isothermal titration calorimetry (ITC) of binding to sortilin. As to conditions: 25°C, PBS pH 7.4, 4% DMSO, read-out: dissociation constant (Kd). As for the experimental part: The open reading frame of human sortilin including the endogenous signal peptide to residue 723 was amplified by PCR and cloned into the pCEP-pu vector with XbaI and XhoI. The primers were designed to include a C-terminal factor Xa site followed by a hexahistidine tag. HEK293F cells were transfected with 900 µg plasmid, applying 900 µl FreeStyle MAX reagent (Invitrogen) according to the manufacturer’s instructions, and were grown in 900 ml FreeStyle 293 medium (Invitrogen) in a 3 l Erlenmeyer flask for 7 d. The medium was harvested by centrifugation at 3700g for 15 min, filtered through a 0.40 µm filter and the pH was adjusted by supplementation with Tris–HCl pH 8.0 to a final concentration of 50 mM. A 5 ml Ni–NTA column (GE Healthcare) was equilibrated in buffer A (50 mM Tris–HCl pH 8.0, 150 mM NaCl) and the medium was recirculated over the column overnight. […]
The binding of AF40431 to sortilin was measured by isothermal titration calorimetry (ITC). […] Heat evolving from dilution was measured by injecting the ligand into PBS supplemented with 4% DMSO. […] Finally, the binding stoichiometry (n), equilibrium dissociation constant (K d), molar enthalpy and entropy changes for the binding processes were determined by analyzing the titration data using Origin software (OriginLab, Northampton, Massachusetts, USA).

Another test has as its target proNGF (Homo sapiens) (UniProt P01138). The note with it: cited from earlier work.

Chain of NTSR1 (P30989 whole entry, species assumed): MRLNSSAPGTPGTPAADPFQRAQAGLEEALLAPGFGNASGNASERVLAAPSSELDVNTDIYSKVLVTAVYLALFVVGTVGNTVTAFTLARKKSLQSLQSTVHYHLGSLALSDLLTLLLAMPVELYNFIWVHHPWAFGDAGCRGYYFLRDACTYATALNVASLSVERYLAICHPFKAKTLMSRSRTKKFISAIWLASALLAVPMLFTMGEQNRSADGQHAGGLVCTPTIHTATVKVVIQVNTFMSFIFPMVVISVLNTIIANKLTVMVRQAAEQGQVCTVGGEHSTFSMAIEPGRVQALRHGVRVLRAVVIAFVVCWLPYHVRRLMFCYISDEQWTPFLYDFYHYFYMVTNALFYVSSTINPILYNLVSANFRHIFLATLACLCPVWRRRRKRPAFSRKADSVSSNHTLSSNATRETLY
Chain of proNGF (Homo sapiens) (P01138 122-241): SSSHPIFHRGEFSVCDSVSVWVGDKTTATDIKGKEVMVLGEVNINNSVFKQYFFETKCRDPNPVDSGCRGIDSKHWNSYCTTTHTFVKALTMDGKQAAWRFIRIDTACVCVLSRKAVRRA

With `CCC(C)C(NCc1c(O)ccc2c(C)cc(=O)oc12)C(=O)O` (stereo not shown) [Compound 1b], on sortilin [1], the concentration for half-maximal inhibition (IC50) turned out to be 6.1 ± 2.7 µM and the “activity in SPA assay (in words)” value was “activity was retained”.

In the case of `Cc1cc(=O)oc2c(CN[C@H](CC(C)C)C(=O)O)c(O)ccc12` [Compound 1h], at sortilin [1], the concentration for half-maximal inhibition (IC50) is greater than 50 µM and the “activity in SPA assay (in words)” value was “inactive”.

With `Cc1cc(=O)oc2c(CN[C@@H](CC(C)C)C(=O)O)c(O)ccc12` [AF40431], the results for the IC50 at NTSR1 and at sortilin [1] were greater than 50 µM and 4.4 ± 0.7 µM, respectively. Besides, the equilibrium dissociation constant (Kd) at sortilin [2] was 0.7 µM.

As to `Cc1cc(=O)oc2c(CNC(CC(C)(C)C)C(=O)O)c(O)ccc12` (stereo not shown) [Compound 1c], on sortilin [1], the IC50 came to 3.1 ± 1.1 µM and the “activity in SPA assay (in words)” value is recorded as “activity was retained”.

Sortilin (from UniProt Q99523): the Kd with proNGF (Homo sapiens) is 0.00016 µM.

With `Cc1cc(=O)oc2c(CNC(C)C(=O)O)c(O)ccc12` (stereo not shown) [Compound 1f], at sortilin [1], the half-inhibitory concentration (IC50) was greater than 50 µM and the “activity in SPA assay (in words)” value is “activity was ablated”.

Regarding `Cc1cc(=O)oc2c(CNC(Cc3ccccc3)C(=O)O)c(O)ccc12` (stereo not shown) [Compound 1g], on sortilin [1], the IC50 is greater than 50 µM and the “activity in SPA assay (in words)” value is recorded as “activity was ablated”.

Turning to `Cc1cc(=O)oc2c(CNC(CC(C)C)C(=O)O)c(O)ccc12` (stereo not shown) [Compound 1a], the IC50 on sortilin [1] amounted to 1.8 µM.

As for `Cc1cc(=O)oc2c(CNC(C(=O)O)C3CCCCC3)c(O)ccc12` (stereo not shown) [Compound 1d], on sortilin [1], the IC50 worked out at 1.7 ± 0.3 µM and the “activity in SPA assay (in words)” value is listed as “activity was retained”.

In the case of `Cc1cc(=O)oc2c(CNC(C(=O)O)C(C)C)c(O)ccc12` (stereo not shown) [Compound 1e], on sortilin [1], the IC50 was greater than 50 µM and the “activity in SPA assay (in words)” value is reported as “activity was ablated”.
